Test results as given in ChEMBL document CHEMBL1201862, “PubChem BioAssay data set” (2004).
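Assay format: 96-well plates, 48-hour exposure. The concentration for 50% growth inhibition is given as GI50.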 The source made the active and inactive calls. No stated cut-off is given here; in the data, active = GI50 up to about 1.1 µM and inactive = higher.

What was measured:
Experiment in all cases: growth of human tumour cells (NCI), 48 h
786-0 = tested on: 786-0
A498 = tested on: A498
A549 = tested on: A549
ACHN = tested on: ACHN
BT-549 = tested on: BT-549
CAKI-1 = tested on: CAKI-1
CCRF-CEM = tested on: CCRF-CEM
COLO 205 = tested on: COLO 205
DU-145 = tested on: DU-145
EKVX = tested on: EKVX
HCC 2998 = tested on: HCC 2998
HCT-116 = tested on: HCT-116
HCT-15 = tested on: HCT-15
HL-60 = tested on: HL-60
HOP-62 = tested on: HOP-62
HOP-92 = tested on: HOP-92
HT-29 = tested on: HT-29
Hs-578T = tested on: Hs-578T
IGROV-1 = tested on: IGROV-1
K562 = tested on: K562
KM12 = tested on: KM12
LOX IMVI = tested on: LOX IMVI
M14 = tested on: M14
MCF7 = tested on: MCF7
MDA-MB-435 = tested on: MDA-MB-435
MDA-N = tested on: MDA-N
MOLT-4 = tested on: MOLT-4
Malme-3M = tested on: Malme-3M
NCI-H226 = tested on: NCI-H226
NCI-H23 = tested on: NCI-H23
NCI-H460 = tested on: NCI-H460
NCI-H522 = tested on: NCI-H522
NCI/ADR-RES = tested on: NCI/ADR-RES
OVCAR-3 = tested on: OVCAR-3
OVCAR-4 = tested on: OVCAR-4
OVCAR-5 = tested on: OVCAR-5
OVCAR-8 = tested on: OVCAR-8
PC-3 = tested on: PC-3
RPMI-8226 = tested on: RPMI-8226
RXF 393 = tested on: RXF 393
SF-268 = tested on: SF-268
SF-295 = tested on: SF-295
SF-539 = tested on: SF-539
SK-MEL-28 = tested on: SK-MEL-28
SK-MEL-5 = tested on: SK-MEL-5
SN12C = tested on: SN12C
SNB-19 = tested on: SNB-19
SNB-75 = tested on: SNB-75
SR = tested on: SR
SW-620 = tested on: SW-620
T47D = tested on: T47D
TK-10 = tested on: TK-10
U-251 = tested on: U-251
UACC-257 = tested on: UACC-257
UACC-62 = tested on: UACC-62
UO-31 = tested on: UO-31

For `O=c1[nH]nc(-c2ccccc2)n1/N=C/c1ccncc1`, the GI50 (786-0) was > 100 µM (inactive), the GI50 (A498) was 24.9 µM (inactive) and the GI50 (A549) was > 100 µM (inactive). For the same compound, the GI50 (ACHN) was > 100 µM (inactive), the GI50 (BT-549) was 32.6 µM (inactive) and the GI50 (CAKI-1) was > 100 µM (inactive). The GI50 (CCRF-CEM) was > 100 µM (inactive), the GI50 (COLO 205) was 54 µM (inactive) and the GI50 (DU-145) was > 100 µM (inactive). For the same compound, the GI50 (EKVX) was > 100 µM (inactive), the GI50 (HCC 2998) was > 100 µM (inactive) and the GI50 (HCT-116) was 53.6 µM (inactive). The GI50 (HCT-15) was > 100 µM, the GI50 (HL-60) was > 100 µM (inactive) and the GI50 (HOP-62) was > 100 µM (inactive). For the same compound, the GI50 (HOP-92) was > 100 µM (inactive), the GI50 (HT-29) was > 100 µM (inactive) and the GI50 (Hs-578T) was 26.2 µM (inactive). For the same compound, the GI50 (IGROV-1) was > 100 µM (inactive), the GI50 (K562) was > 100 µM (inactive) and the GI50 (KM12) was > 100 µM (inactive). For the same compound, the GI50 (LOX IMVI) was > 100 µM (inactive), the GI50 (M14) was > 100 µM (inactive) and the GI50 (MCF7) was > 100 µM (inactive). The GI50 (MDA-MB-435) was > 100 µM (inactive), the GI50 (MDA-N) was > 100 µM (inactive) and the GI50 (MOLT-4) was > 100 µM (inactive). The GI50 (Malme-3M) was > 100 µM (inactive), the GI50 (NCI-H226) was 97.7 µM (inactive) and the GI50 (NCI-H23) was > 100 µM (inactive). For the same compound, the GI50 (NCI-H460) was > 100 µM (inactive), the GI50 (NCI-H522) was > 100 µM (inactive) and the GI50 (NCI/ADR-RES) was > 100 µM (inactive). For the same compound, the GI50 (OVCAR-3) was > 100 µM (inactive), the GI50 (OVCAR-4) was > 100 µM (inactive) and the GI50 (OVCAR-5) was 37.7 µM (inactive). For the same compound, the GI50 (OVCAR-8) was > 100 µM (inactive), the GI50 (PC-3) was > 100 µM (inactive) and the GI50 (RPMI-8226) was > 100 µM (inactive). For the same compound, the GI50 (RXF 393) was 62.5 µM (inactive), the GI50 (SF-268) was > 100 µM (inactive) and the GI50 (SF-295) was > 100 µM (inactive). For the same compound, the GI50 (SF-539) was 61.8 µM (inactive), the GI50 (SK-MEL-28) was > 100 µM (inactive) and the GI50 (SK-MEL-5) was 44.7 µM (inactive). The GI50 (SN12C) was > 100 µM (inactive), the GI50 (SNB-19) was > 100 µM (inactive) and the GI50 (SNB-75) was 81.3 µM (inactive). The GI50 (SR) was 74.1 µM (inactive), the GI50 (SW-620) was > 100 µM (inactive) and the GI50 (T47D) was > 100 µM (inactive). The GI50 (TK-10) was > 100 µM (inactive), the GI50 (U-251) was > 100 µM (inactive) and the GI50 (UACC-257) was > 100 µM (inactive). For the same compound, the GI50 (UACC-62) was > 100 µM (inactive) and the GI50 (UO-31) was 46.3 µM (inactive).
